Tested on: tubulin
Assay: Tubulin polymerization assay
Type: biochemical
Design: key: a compound showing 0 to 50% inhibition at 20 μM is reported as score 1; Score 2 compounds are defined as compound showing more than 50% inhibition at 20 μM and less than 50% inhibition at 5 μM; a compound showing more than 50% inhibition at 5 μM is reported as score 3
Conditions: tested at 20 μM and 5 μM
Method in brief: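 Cytoskeleton kit tubulin was run in a 10 µl final volume at 37 °C, with fluorescence read every minute for 1 h. Polymerization was taken as the maximum slope (4-point linear regression) and expressed as % of no-compound control. Compounds were tested at 20 µM, then at 5 µM if inhibition exceeded 50%, and scored by % inhibition.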

Structure (SMILES) | tubulin polymerisation score
CCc1cc2ccc(C(C)(C#N)Cc3cccc(C#N)n3)cc2[nH]c1=O (single isomer, unassigned) [Compound 206] | 1 (a compound showing 0 to 50% inhibition at 20 μM is reported as score 1)
CCc1cc2ccc(C(C)(C#N)Cc3cccc(C#N)n3)cc2[nH]c1=O (single isomer, unassigned) [Compound 207] | 3 (a compound showing more than 50% inhibition at 5 μM is reported as score 3)
CCc1cc2ccc([C@@](C)(C#N)Cc3cccc(C#N)c3)cc2[nH]c1=O (single isomer, unassigned) [Compound 268] | 1 (a compound showing 0 to 50% inhibition at 20 μM is reported as score 1)
CCc1cc2ccc([C@](C)(C#N)Cc3cccc(C#N)c3)cc2[nH]c1=O (single isomer, unassigned) [Compound 269] | 2
C#Cc1cccc(C[C@](C)(C#N)c2ccc3cc(CC)c(=O)[nH]c3c2)c1 [Compound 2] | 1 (a compound showing 0 to 50% inhibition at 20 μM is reported as score 1)
C#Cc1cccc(C[C@@](C)(C#N)c2ccc3cc(CC)c(=O)[nH]c3c2)c1 [Compound 3] | 2
CCc1cc2ccc(C(C#N)(CC)Cc3ccccc3)cc2[nH]c1=O (stereo not drawn) [Compound 32] | 1 (a compound showing 0 to 50% inhibition at 20 μM is reported as score 1)
COc1ccccc1-c1nc(CC(C)(C#N)c2ccc3cc(C)c(=O)[nH]c3c2)no1 (stereo not drawn) [Compound 33] | 1 (a compound showing 0 to 50% inhibition at 20 μM is reported as score 1)
Cc1cc2ccc([C@](C)(C#N)Cc3cccc(C#N)c3)cc2[nH]c1=O [Compound 36] | 1 (a compound showing 0 to 50% inhibition at 20 μM is reported as score 1)
Cc1cc2ccc(C(C)(C#N)Cc3cccc(Cl)c3)cc2[nH]c1=O (stereo not drawn) [Compound 37] | 1 (a compound showing 0 to 50% inhibition at 20 μM is reported as score 1)
CCc1cc2ccc(C(C)(C#N)Cc3cccc(OCCO)c3)cc2[nH]c1=O (stereo not drawn) [Compound 262] | 2
CCc1cc2ccc(C(C)(C#N)Cc3cccc(CN)c3)cc2[nH]c1=O (stereo not drawn) [Compound 290] | 1 (a compound showing 0 to 50% inhibition at 20 μM is reported as score 1)
COc1cc(OC)nc(CC(C)(C#N)c2ccc3cc(C)c(=O)[nH]c3c2)n1 (stereo not drawn) [Compound 308] | 2
CCc1cc2ccc(C(C)(C#N)Cc3ccc(C)nc3)cc2[nH]c1=O (stereo not drawn) [Compound 327] | 1 (a compound showing 0 to 50% inhibition at 20 μM is reported as score 1)
CCc1cc2ccc(C(C)(C#N)Cc3cccc(C#N)n3)cc2[nH]c1=O (stereo not drawn) [Compound 329] | 3 (a compound showing more than 50% inhibition at 5 μM is reported as score 3)
CCc1cc2ccc(C(C)(C#N)Cc3nc4ccccc4n3C)cc2[nH]c1=O (stereo not drawn) [Compound 338] | 2
CCc1cc2ccc(C(C)(C#N)Cc3cccc(CO)n3)cc2[nH]c1=O (stereo not drawn) [Compound 345] | 2
CCc1cc2ccc(C(C)(C#N)Cc3cccc(OC)n3)cc2[nH]c1=O (stereo not drawn) [Compound 353] | 2
CCc1cc2ccc(C(C)(C#N)Cc3cc(OC)nc(OC)n3)cc2[nH]c1=O (stereo not drawn) [Compound 358] | 2
CCc1cc2ccc(C(C)(C#N)Cc3nc(Cl)cc(N(C)C)n3)cc2[nH]c1=O (stereo not drawn) [Compound 359] | 2
CCc1cc2ccc(C(C)(C#N)Cc3nccc(OC)n3)cc2[nH]c1=O (stereo not drawn) [Compound 360] | 2
